Earlier results in US6579860B1, “Interleukin-6 production inhibitors” (Toray Industries, Inc., priority 1998, dated 2003).

Tested on: mouse macrophage cells
Details: Pannanen N. et al., Pharmaceutical Research 12(6)

| SMILES | effect on cytokine production/release |
| --- | --- |
| O=P(O)(O)C(Cl)(Cl)P(=O)(O)O [clodronate] | suppresses cytokine production |
| CC(O)(P(=O)(O)O)P(=O)(O)O [etidronate] | does not have such an effect |
| NCCC(O)(P(=O)(O)O)P(=O)(O)O [pamidronate] | enhances release of cytokine |
